Results from PMC6554660 (Frontiers in Pharmacology, 2019).
Entries after “also recorded” stand apart in the source; their conditions may differ. Where a SMILES comes first, the peptide text is derived from it. Bridges are numbered along the chain shown (N, C = ends).

How the values were obtained:
[1] = biological target: rat α3β2 nAChR (Rattus norvegicus, UniProt P04757+P12390); assay: cell-based
[2] = biological target: rat α7 nAChR (Rattus norvegicus, UniProt Q05941); assay: cell-based; assay type: cell-based
Sequence of rat α7 nAChR (Q05941 23-502 limits assumed): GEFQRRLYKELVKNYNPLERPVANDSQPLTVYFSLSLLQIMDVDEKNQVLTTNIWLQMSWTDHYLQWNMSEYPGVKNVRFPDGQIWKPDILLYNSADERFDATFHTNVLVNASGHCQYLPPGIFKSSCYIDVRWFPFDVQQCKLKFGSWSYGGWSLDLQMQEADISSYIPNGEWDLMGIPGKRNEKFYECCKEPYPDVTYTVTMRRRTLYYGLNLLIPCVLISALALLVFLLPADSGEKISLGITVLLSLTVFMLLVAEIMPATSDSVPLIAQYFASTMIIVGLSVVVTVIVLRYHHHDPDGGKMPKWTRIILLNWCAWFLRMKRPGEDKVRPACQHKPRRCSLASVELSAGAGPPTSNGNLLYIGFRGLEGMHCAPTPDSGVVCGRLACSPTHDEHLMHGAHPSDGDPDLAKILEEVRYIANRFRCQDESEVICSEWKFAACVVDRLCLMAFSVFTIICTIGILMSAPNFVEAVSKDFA

[3] = in vivo; cited from earlier work

Sequence of rat α3β2 nAChR (P04757 26-499 limits assumed): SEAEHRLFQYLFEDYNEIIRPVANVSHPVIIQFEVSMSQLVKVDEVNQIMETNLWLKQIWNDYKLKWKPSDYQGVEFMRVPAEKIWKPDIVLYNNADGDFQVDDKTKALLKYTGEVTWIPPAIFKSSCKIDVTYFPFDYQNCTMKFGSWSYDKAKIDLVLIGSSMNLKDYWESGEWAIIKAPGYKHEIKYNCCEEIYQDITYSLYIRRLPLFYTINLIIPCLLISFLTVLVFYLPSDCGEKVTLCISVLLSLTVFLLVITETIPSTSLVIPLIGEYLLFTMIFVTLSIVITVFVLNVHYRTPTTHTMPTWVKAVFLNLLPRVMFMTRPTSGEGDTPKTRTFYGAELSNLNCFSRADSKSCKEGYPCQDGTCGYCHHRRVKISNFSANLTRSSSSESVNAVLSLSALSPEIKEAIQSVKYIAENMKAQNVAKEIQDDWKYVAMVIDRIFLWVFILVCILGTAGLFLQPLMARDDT
Sequence of rat α3β2 nAChR (P12390 25-500 limits assumed): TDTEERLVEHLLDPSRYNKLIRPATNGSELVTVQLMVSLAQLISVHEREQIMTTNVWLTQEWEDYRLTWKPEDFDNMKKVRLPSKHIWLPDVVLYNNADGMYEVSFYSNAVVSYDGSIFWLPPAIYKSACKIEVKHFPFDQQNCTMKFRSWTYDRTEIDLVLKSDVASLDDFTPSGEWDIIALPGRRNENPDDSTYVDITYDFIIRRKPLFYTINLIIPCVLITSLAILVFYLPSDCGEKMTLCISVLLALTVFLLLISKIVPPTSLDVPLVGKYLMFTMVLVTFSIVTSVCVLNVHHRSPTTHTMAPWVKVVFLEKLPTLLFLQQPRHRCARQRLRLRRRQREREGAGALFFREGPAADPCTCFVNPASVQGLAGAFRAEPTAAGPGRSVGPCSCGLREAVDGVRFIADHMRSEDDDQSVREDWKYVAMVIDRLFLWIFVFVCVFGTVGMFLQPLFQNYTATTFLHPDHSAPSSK

Compound	nH (Hill coefficient) [1]	IC50 [2]	activity at α7 nAChR (in words) [2]	nH (Hill coefficient) [2]	IC50 [1]	analgesic properties [3]
CC[C@H](C)[C@@H]1NC(=O)[C@@H]2CSSC[C@H](NC(=O)[C@@H](NC(=O)CN)CSSC[C@@H](C(=O)O)NC(=O)[C@H](CC(C)C)NC(=O)[C@H](CC(=O)O)NC(=O)[C@@H]3CCCN3C(=O)[C@H](CC(N)=O)NC(=O)[C@H](CC(N)=O)NC(=O)[C@H](C)NC1=O)C(=O)N[C@@H](CO)C(=O)N[C@@H](CCCNC(=N)N)C(=O)N1CCC[C@H]1C(=O)N1CCC[C@H]1C(=O)N2 [Recombinant TxIA]	−1.54					
CC[C@H](C)[C@@H]1NC(=O)[C@@H]2CSSC[C@H](NC(=O)[C@@H](NC(=O)CN)CSSC[C@@H](C(=O)O)NC(=O)[C@H](CC(C)C)NC(=O)[C@H](CC(=O)O)NC(=O)[C@@H]3CCCN3C(=O)[C@H](CC(N)=O)NC(=O)[C@H](CC(N)=O)NC(=O)[C@H](C)NC1=O)C(=O)N[C@@H](CO)C(=O)N[C@@H](CC(=O)O)C(=O)N1CCC[C@H]1C(=O)N1CCC[C@H]1C(=O)N2 [Recombinant [R5D]TxIA] (H-GCCSDPPCIANNPDLC-OH; disulfide 2-16, 3-8)	−1.38	2910 nM	almost completely reversed; also recorded: could rescue the activity at the α7 nAChR at a similar level to that of globular TxIA	−1.24	3540 nM	
CC[C@H](C)[C@@H]1NC(=O)[C@@H]2CSSC[C@H](NC(=O)[C@@H](NC(=O)CN)CSSC[C@@H](C(=O)O)NC(=O)[C@H](CC(C)C)NC(=O)[C@H](CC(=O)O)NC(=O)[C@@H]3CCCN3C(=O)[C@H](CC(N)=O)NC(=O)[C@H](CC(N)=O)NC(=O)[C@H](C)NC1=O)C(=O)N[C@@H](CO)C(=O)N[C@@H](CC(N)=O)C(=O)N1CCC[C@H]1C(=O)N1CCC[C@H]1C(=O)N2 [Recombinant [R5N]TxIA] (H-GCCSNPPCIANNPDLC-OH; disulfide 2-16, 3-8)	−1.36		but not when an asparagine residue was introduced in this position		1830 nM	
CC[C@H](C)[C@@H]1NC(=O)[C@@H]2CSSC[C@H](NC(=O)CN)C(=O)N[C@@H](CSSC[C@@H](C(N)=O)NC(=O)[C@H](CC(C)C)NC(=O)[C@H](CC(=O)O)NC(=O)[C@@H]3CCCN3C(=O)[C@H](CC(N)=O)NC(=O)[C@H](CC(N)=O)NC(=O)[C@H](C)NC1=O)C(=O)N[C@@H](CO)C(=O)N[C@@H](CCCNC(=N)N)C(=O)N1CCC[C@H]1C(=O)N1CCC[C@H]1C(=O)N2 [Synthetic TxIA, reference compound]		1810 nM			4.6 nM	
Vc1.1						potent analgesic properties
